This note sets out measurements from ChEMBL document CHEMBL1129148, “Synthesis and biological evaluation of 4-alkoxy substituted trinems. Part I” (1996).

Values after ≈ are worked out from the molar mass of the structure shown.

Format in all cases: functional
For test [1], the system named is Bacteroides fragilis. Put plainly: Compound was tested for in vitro antibacterial activity against Bacteroides fragilis 2017.
The subject of test [2] is Escherichia coli. Put plainly: Compound was tested for in vitro antibacterial activity against Escherichia coli 1850E.
Test [3] has as its system Streptococcus pneumoniae. Put plainly: Compound was tested for in vitro antibacterial activity against Streptococcus pneumoniae 3512.
Test [4] deals with Clostridium perfringens. Put plainly: Compound was tested for in vitro antibacterial activity against Clostridium perfringens 615E.
Test [5] has as its system Staphylococcus aureus. Put plainly: Compound was tested for in vitro antibacterial activity against Staphylococcus aureus 853E penicillinase (PCI) producing strain.
The subject of test [6] is Enterococcus faecalis. Put plainly: Compound was tested for in vitro antibacterial activity against […] faecalis 850.
The subject of test [7] is Escherichia coli. The test is described as follows: Compound was tested for in vitro antibacterial activity against Escherichia coli 1919 a beta-lactamase producing strain(TEM 1) with permeable outer membrane.
The subject of test [8] is Pseudomonas aeruginosa. The test is described as follows: Compound was tested for in vitro antibacterial activity against Pseudomonas aeruginosa 1911.

In general, MIC refers to the least concentration at which growth counts as inhibited. A high value points to a need for much substance. Consider `COCCO[C@H]1CCC[C@@H]2C1=C(C(=O)[O-])N1C(=O)[C@H]([C@@H](C)O)[C@@H]21.[K+]`, for which the MIC in test [1] is 32 µg/mL; in test [2], above 32 µg/mL; in test [3] it was 8 µg/mL; in test [4] it was above 32 µg/mL; in test [5] it was 8 µg/mL; in test [6], above 32 µg/mL. In addition, the MIC in test [7] was 32 µg/mL; in test [8], above 32 µg/mL.
In the case of `C[C@@H](O)[C@H]1C(=O)N2C(C(=O)[O-])=C3[C@@H](OCCF)CCC[C@@H]3[C@H]12.[K+]`, the MIC in test [1] was 0.2 µg/mL; in test [2], 4 µg/mL; in test [3], 0.03 µg/mL; in test [4], at most 0.01 µg/mL; in test [5] it was 0.2 µg/mL; in test [6], 4 µg/mL. The MIC in test [7] was 0.5 µg/mL; in test [8], above 32 µg/mL.
As to `C[C@@H](O)[C@H]1C(=O)N2C(C(=O)[O-])=C3[C@@H](OCCO)CCC[C@@H]3[C@H]12.[K+]`, the minimum inhibitory concentration (MIC) in test [1] amounted to 0.1 µg/mL; in test [2], 0.5 µg/mL; in test [3], 0.1 µg/mL; in test [4], 0.06 µg/mL; in test [5], 0.5 µg/mL; in test [6] it was 8 µg/mL. Moreover, the MIC in test [7] was 0.5 µg/mL; in test [8], above 32 µg/mL.
Take `C[C@@H](O)[C@H]1C(=O)N2C(C(=O)[O-])=C3[C@@H](OCCC#N)CCC[C@@H]3[C@H]12.[K+]`: the MIC in test [1] came out at 0.2 µg/mL; in test [2], 4 µg/mL; in test [3], 0.06 µg/mL; in test [4], 0.03 µg/mL; in test [5], 0.5 µg/mL; in test [6], 2 µg/mL. The values for the MIC in test [7] and in test [8] were 1 µg/mL and above 32 µg/mL, respectively.
Turning to `C[C@@H](O)[C@H]1C(=O)N2C(C(=O)O)=C(SCCNC=N)C[C@H]12` [IMIPENEM ANHYDROUS], the MIC was 0.06 µg/mL (≈ 0.2 µM) in test [1]; 0.5 µg/mL (≈ 1.67 µM) in test [2]; below 0.01 µg/mL in test [3]; 0.03 µg/mL (≈ 0.1 µM) in test [4]; 0.1 µg/mL (≈ 0.334 µM) in test [5]; 2 µg/mL (≈ 6.68 µM) in test [6]. The MIC in test [7] worked out at 0.5 µg/mL (≈ 1.67 µM); in test [8], 4 µg/mL (≈ 13.4 µM).
For the molecule `COCCO[C@H]1CCC[C@H]2C1=C(C(=O)[O-])N1C(=O)[C@H]([C@@H](C)O)[C@@H]21.[K+]`, the MIC in test [1] amounted to 0.1 µg/mL; in test [2] it was 2 µg/mL; in test [3] it was 0.2 µg/mL; in test [4], 0.03 µg/mL; in test [5], 0.5 µg/mL; in test [6], 2 µg/mL. In addition, the values for the MIC in test [7] and in test [8] were 0.5 µg/mL and above 32 µg/mL, respectively.
Regarding `CO[C@H]1CCC[C@H]2C1=C(C(=O)[O-])N1C(=O)[C@H]([C@@H](C)O)[C@@H]21.[Na+]` [SANFETRINEM SODIUM], the MIC was 0.06 µg/mL in test [1]; 0.5 µg/mL in test [2]; at most 0.01 µg/mL in test [3]; 0.03 µg/mL in test [4]; 0.2 µg/mL in test [5]; 1 µg/mL in test [6]. For the same molecule, the MIC in test [7] was 0.5 µg/mL; in test [8], above 32 µg/mL.
